Measured values taken from patent US5348980A, “Enantiomers derived from (S)-2-amino-2-(3,4-dichlorobenzyl)-1-propanol, their use and method of preparation” (Institute de Recherche Jouveinal, priority 1992, dated 1994).
Counter-ions that a name gives are not always drawn.

Assays:
[1] = test system: bronchoconstriction caused by 100 μmol/kg of histamine; experiment: Histamine-induced bronchoconstriction test (Konzett and Rossler), i.v. administration; assay type: in vivo, guinea pigs; details: for ED50: Cavia porcellus, iv
Source text: (§1) Furthermore, the antihistaminic properties were studied in guinea pigs by the bronchoconstriction test performed according to the method of H. Konzett and R. Rossler (Arch. Exp. Path. Pharmak.--Naunym Schmiedeberg - 195, 71-74, 1940).
(§2) The products of the invention were studied in this test after administration in solution or in suspension via the intravenous and intraduodenal routes, and also in powder form via the intranasal route.
(§3) Irrespective of the administration route, the preparation of the animals employed in the test consists in first anesthetizing male guinea pigs weighing 350 to 400 g by intraperitoneal (i.p.) injection of a sterile and isotonic solution containing 25% (w/v.) of ethyl carbamate on the basis of 6.0 ml/kg, and in then fitting the animals with a tracheal cannula to permit measurement of the pulmonary pressure, a cannula in the right jugular vein for the intravenous (i.v.) administration of solution, and also a cannula in the left carotid artery for qualitative observation of the blood pressure.
(§4) The animals are then connected to a pump (Harvard, ref. 50-1718) in order to maintain an artificial ventilation at a frequency of 60 insufflations per minute; the intratracheal pressure is recorded by an assembly comprising a transducer, an amplifier and a recorder (Gould, respective refs.: PLOEZ, 13-4615-50 and 8188-G4400-06).
(§5) Fitted in this way, the animals are left undisturbed for 10 minutes before the beginning of the actual experiment, which is carried out in different ways according to the administration route envisaged.
In base form, the test products are dissolved in an isotonic solution (0.9% NaCl) containing 10% (v/v) of Transcutol (R). Dilutions are performed by adding isotonic solution. In salt, in particular hydrochloride, form, the solutions are prepared in the isotonic solution.
The treatment of the animals consists of a series of administrations of histamine dihydrochloride solution on the basis of 100 μmol/kg before and after treatment with the solution of test product, which is carried out according to the following time schedule:
t=-20 minutes - histamine (100 μmol/kg)
t=-10 minutes - ditto control
t=0 - injection of the test product
t=+10 minutes - histamine (100 μmol/kg)
(§6) - Calculation and expression of the results:
(§7) For each administration route and for each time of administration of histamine, the activity of the products is expressed as the percentage change in amplitude of bronchoconstriction, calculated relative to that produced by the "control" administration of histamine which precedes the administration of the test product. The % change is calculated according to the formula: [formula] in which: Bc(tx) represents the amplitude of the bronchoconstriction in mm at time x,
(§8) Bo(tx) the amplitude of the base-line respiration in mm at time x,
(§9) Bc(to) and Bo(to) the corresponding amplitudes in mm on receipt of the "control" administration of histamine which precedes that of the test product.
(§10) The inhibitory activity of the test products on histamine-induced bronchoconstriction is expressed at different times of the studies as their ED50, which is the effective dose of product, expressed in μmol/kg, capable of inhibiting 50% of the histamine-induced bronchoconstriction at the time in question.
(§11) Failing this expression, the results are expressed as a % change at the time in question and for a given concentration of the test product. Under these conditions, a positive percentage corresponds to a potentiating effect on bronchoconstriction and, conversely, a negative percentage to an inhibitory effect.
(§12) Statistical analyses of the results were carried out by the Student t test. A value of p<0.05 is considered significant.
(§13) The compounds of the invention described in Examples 1 and 2 were employed in these tests. In addition, as a comparative product for the eutomer of Example 1, the racemic (R,S) compound corresponding to it, and which is described and prepared in Example 7 of U.S. Pat. No. 4,994,617, was employed. […]

[2] = test system: bronchoconstriction caused by 100 μmol/kg of histamine; experiment: Histamine-induced bronchoconstriction test (Konzett and Rossler), intraduodenal (i.d.) administration; assay type: in vivo, guinea pigs; details: for ED50: Cavia porcellus; for ED50, inhibition of histamine-induced bronchoconstriction, t = 20': 20 min
Source text: as §1, §2, §3, §4, §5
In base form, the test products are suspended in a solution containing 1% w/v of carboxymethylcellulose (CMC), and, in salt form, they are dissolved in an isotonic solution before being administered via a cannula whose end is placed in the animal's duodenum.
The time schedule for the successive administrations of histamine via the i.v. route and that for the test solution via the i.d. route are identical to that described above in a).
as §6, §7, §8, §9, §10, §11, §12, §13

[3] = 10 min, t = 10', read-out: ED50, inhibition of histamine-induced bronchoconstriction, t = 10'
[4] = 0.5 h, t = 30', read-out: ED50, inhibition of histamine-induced bronchoconstriction, t = 30'
[5] = 40 min, t = 40', read-out: ED50, inhibition of histamine-induced bronchoconstriction, t = 40'
[6] = 50 min, t = 50', read-out: ED50, inhibition of histamine-induced bronchoconstriction, t = 50'
[7] = 1 h, t = 60', read-out: ED50, inhibition of histamine-induced bronchoconstriction, t = 60'

**Q.** How did the ED50 [1, 3] turn out when `C=CCN(C)[C@](C)(CO)Cc1ccc(Cl)c(Cl)c1` [Example 2, base, (S)-(+)-N-allyl-2-methylamino-2-(3,4-dichlorobenzyl)-1-propanol] was run?
**A.** 1.27 µmol/kg

**Q.** And the ED50 ([1]; 20 min, t = 20', read-out: ED50, inhibition of histamine-induced bronchoconstriction, t = 20')?
**A.** 0.93 µmol/kg

**Q.** And the ED50 [1, 4]?
**A.** 0.74 µmol/kg

**Q.** What about the ED50 [1, 5] of the same molecule?
**A.** 0.96 µmol/kg

**Q.** What about the ED50 [1, 6] of the same molecule?
**A.** 1.01 µmol/kg

**Q.** What about the ED50 [1, 7] of the same molecule?
**A.** 0.76 µmol/kg

**Q.** What about the ED50 [2, 4] of the same molecule?
**A.** 0.59 µmol/kg

**Q.** What about the ED50 [2, 5] of the same molecule?
**A.** 0.65 µmol/kg

**Q.** What about the ED50 [2, 6] of the same molecule?
**A.** 0.63 µmol/kg

**Q.** What about the ED50 [2, 7] of the same molecule?
**A.** 0.62 µmol/kg

**Q.** And the “ED50, inhibition of histamine-induced bronchoconstriction, t = 20'” value (“ED50, inhibition … t = 20'” for short) [2]?
**A.** 1.45 µmol/kg

**Q.** `C=CCN(C)[C@](C)(CO)Cc1ccc(Cl)c(Cl)c1` [Example 2, hydrochloride, (S)-(+)-N-allyl-2-methylamino-2-(3,4-dichlorobenzyl)-1-propanol] was tested. Which “ED50, inhibition of histamine-induced bronchoconstriction, t = 10'” value ([1]; t = 10', 10 min) did it give?
**A.** 1.68 μmol/kg

**Q.** And the “ED50, inhibition … t = 20'” value ([1]; t = 20', 20 min)?
**A.** 0.70 µmol/kg

**Q.** And the “ED50, inhibition of histamine-induced bronchoconstriction, t = 30'” value ([1]; t = 30', 30 min)?
**A.** 0.58 µmol/kg

**Q.** What about the “ED50, inhibition of histamine-induced bronchoconstriction, t = 40'” value ([1]; t = 40', 40 min) of the same molecule?
**A.** 0.57 µmol/kg

**Q.** What about the “ED50, inhibition of histamine-induced bronchoconstriction, t = 50'” value ([1]; t = 50', 50 min) of the same molecule?
**A.** 0.51 µmol/kg

**Q.** What about the “ED50, inhibition of histamine-induced bronchoconstriction, t = 60'” value ([1]; t = 60', 60 min) of the same molecule?
**A.** 0.53 µmol/kg

**Q.** What about the ED50 [2, 3] of the same molecule?
**A.** 1.59 µmol/kg

**Q.** And the “ED50, inhibition … t = 20'” value [2]?
**A.** 0.42 µmol/kg

**Q.** What about the “ED50, inhibition of histamine-induced bronchoconstriction, t = 30'” value ([2]; t = 30', 30 min) of the same molecule?
**A.** 0.33 µmol/kg

**Q.** What about the “ED50, inhibition of histamine-induced bronchoconstriction, t = 40'” value ([2]; t = 40', 40 min) of the same molecule?
**A.** 0.48 µmol/kg

**Q.** And the “ED50, inhibition of histamine-induced bronchoconstriction, t = 50'” value ([2]; t = 50', 50 min)?
**A.** 0.51 µmol/kg

**Q.** And the “ED50, inhibition of histamine-induced bronchoconstriction, t = 60'” value ([2]; t = 60', 60 min)?
**A.** 0.56 µmol/kg
